Test results taken from patent US7138361B2, “Herbicidal heterocycles” (E. I. du Pont de Nemours and Company, priority 2000, dated 2006).

Experiments:
Type in all cases: in vivo
[1] = test system: morningglory (Ipomoea hederacea); assay: Test C postemergence
Text: Seeds of plant species selected from bermudagrass (Cynodon dactylon), Surinam grass (Brachiaria decumbens), cocklebur (Xanthium strumarium), corn (Zea mays), crabgrass (Digitaria sanguinalis), woolly cupgrass (Eriochloa villosa), giant foxtail (Setaria faberii), goosegrass (Eleusine indica), johnsongrass (Sorghum halepense), kochia (Kochia scoparia), lambsquarters (Chenopodium album), morningglory (Ipomoea hederacea), yellow nutsedge (Cyperus esculentus), pigweed (Amaranthus retroflexus), common ragweed (Ambrosia elatior), soybean (Glycine max) and velvetleaf (Abutilon theophrasti) were planted and treated preemergence with test chemicals formulated in a non-phytotoxic solvent mixture which included a surfactant.
At the same time, plants selected from these crop and weed species and also winter barley (Hordeum vulgare), blackgrass (Alopecurus myosuroides), canary grass (Phalaris minor), chickweed (Stellaria media), downy brome (Bromus tectorum), green foxtail (Setaria viridis), Italian ryegrass (Lolium multiflorum), wheat (Triticum aestivum), wild oat (Avena fatua) and windgrass (Apera spica-venti) were treated with postemergence applications of some of the test chemicals formulated in the same manner. Plants ranged in height from 2 to 18 cm (1- to 4-leaf stage) for postemergence treatments. Plant species in the flooded paddy test consisted of rice (Oryza saliva), smallflower flatsedge (Cyperus difformis), duck salad (Heteranthera limosa) and barnyardgrass (Echinochloa crus-galli) grown to the 2-leaf stage for testing. Treated plants and controls were maintained in a greenhouse for 12 to 14 days, after which time all species were compared to controls and visually evaluated. Plant response ratings, summarized in Table C, are based on a scale of 0 to 100 where 0 is no effect and 100 is complete control. A dash (-) response means no test result.

Sunflower = assay: Test C preemergence; details: scale 0 to 100
[2] = test system: lambsquarters (Chenopodium album); assay: Test B postemergence
Outline: (§1)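 Seeds were planted and sprayed preemergence with test chemical in a non-phytotoxic solvent mixture containing surfactant; postemergence plants (2 to 18 cm, 1- to 4-leaf stage) received the same formulation. Greenhouse hold 13 to 15 days, then visual rating versus untreated controls on a 0–100 scale (0 no effect, 100 complete control).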

[3] = test system: blackgrass (Alopecurus myosuroides); assay: Test B postemergence
Outline: as §1

[4] = test system: barnyardgrass (Echinochloa crus-galli); assay: Test C flooded paddy test; details: for Barnyardgrass plant response rating: Flooded Paddy, scale 0 to 100, 0 no effect, 100 complete control; for Plant response rating, Barnyardgrass: flooded paddy test, scale 0 to 100 (0 no effect, 100 complete control)
Outline: (§2)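 Rice and three paddy weeds were grown to the 2-leaf stage under flooded conditions, then treated and kept in a greenhouse for 12–14 days. Response was rated visually against untreated controls on a 0–100 scale, where 100 is complete control.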

rice (Oryza saliva) = assay: Test C flooded paddy test; details: for Rice plant response rating: Flooded Paddy, scale 0 to 100, 0 no effect, 100 complete control; for Plant response rating, Rice: flooded paddy test, scale 0 to 100 (0 no effect, 100 complete control)
Outline: as §2

[5] = test system: smallflower flatsedge (Cyperus difformis); assay: Test C flooded paddy test; details: for Flatsedge plant response rating: Flooded Paddy, scale 0 to 100, 0 no effect, 100 complete control; for Plant response rating, Flatsedge: flooded paddy test, scale 0 to 100 (0 no effect, 100 complete control)
Outline: as §2

[6] = test system: duck salad (Heteranthera limosa); assay: Test C flooded paddy test; details: for Ducksalad plant response rating: Flooded Paddy, scale 0 to 100, 0 no effect, 100 complete control; for Plant response rating, Ducksalad: flooded paddy test, scale 0 to 100 (0 no effect, 100 complete control)
Outline: as §2

[7] = Rate 250 g/ha, scale 0 to 100 (0 no effect, 100 complete control)
[8] = Rate 500 g/ha, scale 0 to 100, 0 is no effect, 100 is complete control, 13 to 15 days
[9] = Rate 125 g/ha, scale 0 (no effect) to 100 (complete control), 13 to 15 days
[10] = Rate 62 g/ha, scale 0 to 100, 0 no effect, 100 complete control
[11] = Rate 250 g/ha, scale 0 (no effect) to 100 (complete control), 13 to 15 days

Compound | Plant response rating, Morningglory ([1]; Rate 62 g/ha, scale 0 to 100) | Plant response rating, Sunflower (Sunflower; Rate 62 g/ha) | Plant response rating, Lambsquarters [2, 8] | Plant response rating, Blackgrass [3, 9] | Plant response rating, Blackgrass [3, 8] | Barnyardgrass plant response rating ([4]; Rate 250 g/ha) | Barnyardgrass plant response rating ([4]; Rate 500 g/ha) | Plant response rating, Barnyardgrass ([4]; Rate 62 g/ha) | Plant response rating, Barnyardgrass ([4]; Rate 125 g/ha) | Rice plant response rating (rice (Oryza saliva); Rate 250 g/ha) | Rice plant response rating (rice (Oryza saliva); Rate 500 g/ha) | Plant response rating, Rice (rice (Oryza saliva); Rate 62 g/ha) | Plant response rating, Rice (rice (Oryza saliva); Rate 125 g/ha) | Flatsedge plant response rating ([5]; Rate 250 g/ha) | Flatsedge plant response rating ([5]; Rate 500 g/ha) | Plant response rating, Flatsedge ([5]; Rate 62 g/ha) | Plant response rating, Flatsedge ([5]; Rate 125 g/ha) | Ducksalad plant response rating ([6]; Rate 250 g/ha) | Ducksalad plant response rating ([6]; Rate 500 g/ha) | Plant response rating, Ducksalad ([6]; Rate 62 g/ha) | further results
CCOc1cc(N2CCC(n3ccc(C(C)(C)C)n3)C2=O)ccc1C (stereo not drawn) [Compound 106] | 90 | 70 | 100 | 0 | 0 | 90 | 100 | 30 | 50 | 60 | 90 | 20 | 60 | 100 | 100 | 80 | 90 | 100 | 100 | 0 | Plant response rating, Morningglory ([1]; Rate 31 g/ha, scale 0 to 100): 90; Plant response rating, Morningglory ([1]; Rate 125 g/ha, scale 0 to 100, 0 no effect, 100 complete control): 90; Plant response rating, Morningglory [1, 7]: 100; Plant response rating, Sunflower (Sunflower; Rate 31 g/ha): 70; Plant response rating, Ducksalad ([6]; Rate 125 g/ha): 0
CCCOc1cc(N2CCC(n3ccc(C(C)(C)C)n3)C2=O)ccc1C (stereo not drawn) [Compound 107] | 60 | 0 | 100 | 0 | 0 | 70 | 80 | 20 | 30 | 0 | 20 | 0 | 0 | 60 | 100 | 30 | 50 | 0 | 70 | 0 | Plant response rating, Morningglory [1, 7]: 100; Plant response rating, Morningglory ([1]; Rate 500 g/ha, scale 0 to 100 (0 no effect, 100 complete control)): 100; Plant response rating, Ducksalad ([6]; Rate 125 g/ha): 0
Cc1ccc(N2CCC(n3ccc(C(C)(C)C)n3)C2=O)cc1OCCCl (stereo not drawn) [Compound 109] | 100 | 70 | 90 | 0 | 0 | 70 | 90 | 0 | 0 | 0 | 20 | 0 | 0 | 80 | 100 | 40 | 50 | 70 | 90 | 0 | Plant response rating, Morningglory ([1]; Rate 31 g/ha, scale 0 to 100): 60; Plant response rating, Sunflower (Sunflower; Rate 31 g/ha): 40; Plant response rating, Lambsquarters [2, 10]: 80; Plant response rating, Lambsquarters [2, 11]: 90; Plant response rating, Blackgrass [3, 10]: 0; Plant response rating, Blackgrass [3, 11]: 0; Plant response rating, Ducksalad ([6]; Rate 125 g/ha): 0
